These results are taken from ChEMBL document CHEMBL1157926, “Synthesis and biological evaluation of combretastatin analogs as cell cycle inhibitors of the G1 to S transition in Saccharomyces cerevisiae” (2010).

The subject of experiment [1] is Saccharomyces cerevisiae. Kind of experiment: Growth inhibition of Saccharomyces cerevisiae BY4741 at 150 uM up to 180 mins. It is filed as functional, organism-based.
For experiment [2], the system named is Saccharomyces cerevisiae. Kind of experiment: Growth inhibition of Saccharomyces cerevisiae BY4741 at 300 uM up to 180 mins. It is filed as functional, organism-based.
Experiment [3] has as its system Saccharomyces cerevisiae. Kind of experiment: Growth inhibition of Saccharomyces cerevisiae BY4741 at 450 uM up to 180 mins. It is filed as functional, organism-based.
The subject of experiment [4] is Saccharomyces cerevisiae. Kind of experiment: Induction of log phase growth arrest in Saccharomyces cerevisiae BY4741. In kind it is functional, organism-based.
In experiment [5] the test system is Saccharomyces cerevisiae. Put plainly: Reduction of budding index in Saccharomyces cerevisiae BY4741 at 450 uM relative to control. It is filed as functional. Further details: scale not given: the % may be the effect or the level left.
In experiment [6] the test system is Saccharomyces cerevisiae. Put plainly: Cell cycle arrest in Saccharomyces cerevisiae BY4741 assessed as accumulation of cells at G1 phase at 450 uM after 3 hrs by FACS analysis. It is filed as functional. (Flow cytometry measures light scatter and fluorescence of single cells or particles in a stream.)
Experiment [7] relates to Saccharomyces cerevisiae. Put plainly: Induction of G1 phase arrest in Saccharomyces cerevisiae expressing TAP-tagged Clb5 assessed as down-regulation of Clb5 level at 450 uM after 3 hrs by Western blot analysis. It is filed as functional, organism-based. (In western blotting, separated proteins are transferred to a membrane and probed.)
The subject of experiment [8] is Saccharomyces cerevisiae. Kind of experiment: Induction of G1 phase arrest in Saccharomyces cerevisiae expressing TAP-tagged Cln1 assessed as down-regulation of Cln1 level at 450 uM after 3 hrs by Western blot analysis. It is filed as functional, organism-based.
Experiment [9] concerns Saccharomyces cerevisiae. Put plainly: Induction of G1 phase arrest in Saccharomyces cerevisiae expressing TAP-tagged Cln2 assessed as down-regulation of Cln2 level at 450 uM after 3 hrs by Western blot analysis. It is filed as functional, organism-based.
For experiment [10], the system named is Saccharomyces cerevisiae. Put plainly: Induction of G1 phase arrest in Saccharomyces cerevisiae expressing TAP-tagged Sic1 assessed as down-regulation of Sic1 level at 450 uM after 3 hrs by Western blot analysis. In kind it is functional, organism-based.
The subject of experiment [11] is Saccharomyces cerevisiae. Kind of experiment: Induction of G1 phase arrest in alpha factor treated Saccharomyces cerevisiae expressing TAP-tagged Clb5 assessed as inhibition of Clb5 expression at 450 uM after 3 hrs by FACS analysis. In kind it is functional, organism-based.
Experiment [12] relates to Saccharomyces cerevisiae. Kind of experiment: Induction of snf1 phosphorylation at T210 in Saccharomyces cerevisiae expressing Snf1-9myc at 450 uM after 3 hrs by Western blot analysis. In kind it is functional, organism-based.
Experiment [13] concerns Saccharomyces cerevisiae. Put plainly: Cell cycle arrest in Saccharomyces cerevisiae BY4741 assessed as accumulation of cells at metaphase with post synthetic DNA content by FACS analysis. It is filed as functional, organism-based.
Experiment [14] has as its system Saccharomyces cerevisiae. Put plainly: Cell cycle arrest in Saccharomyces cerevisiae BY4741 assessed as accumulation of cells at metaphase with short spindles by FACS analysis. In kind it is functional, organism-based.

Activity calls are given as the source filed them. The rule behind the calls is not given here.

On to `COc1ccc(/C=C/c2cc(OC)c(OC)c(OC)c2)cc1O`, for which the “growth inhibition (GI)” value in experiment [1], in [2] and in [3] was “inactive” in each case.
For the molecule `COc1ccc(/C=C\c2cc(OC)c(OC)c(OC)c2)cc1O` [COMBRETASTATIN A4], the Activity result is “Dose-dependent effect” in [4], 42% in experiment [5] and 50% in [6]. Also, the result in experiment [7], in experiment [11] and in [12] was Active. For the same molecule, the result in [8], in experiment [9] and in [10] was inactive.
Consider `COc1ccc(/C=C/c2cc(OC)c(OC)c(OC)c2)cc1N`, for which the “growth inhibition (GI)” value in [1], in [2] and in experiment [3] was “inactive” throughout.
With `COc1ccc(/C=C/c2cc(OC)c(OC)c(OC)c2)cc1B(O)O`, the “growth inhibition (GI)” value in experiment [1], in experiment [2] and in experiment [3] was “inactive” throughout.
As to `COc1ccc(/C=C\c2cc(OC)c(OC)c(OC)c2)cc1[N+](=O)[O-]`, the “growth inhibition (GI)” value in experiment [1], in experiment [2] and in experiment [3] was “inactive” each time.
Consider `COc1ccc(/C=C\c2cc(OC)c(OC)c(OC)c2)cc1N`, for which the “growth inhibition (GI)” value in experiment [1], in experiment [2] and in [3] was “inactive” throughout.
For the molecule `COc1ccc(/C=C\c2cc(OC)c(OC)c(OC)c2)cc1B(O)O`, the Activity entry was “Dose-dependent effect” in experiment [4], 42% in experiment [5] and 50% in [6]. The result in experiment [7], in experiment [11] and in [12] was Active. In addition, the outcome in [8], in experiment [9] and in experiment [10] was inactive.
On to `COc1ccc(/C=C\c2cc(OC)c(OC)c(OC)c2)cc1F`, for which the “growth inhibition (GI)” value in experiment [1], in experiment [2] and in [3] was “inactive” each time.
Consider `COc1ccc(/C=C/c2cc(OC)c(OC)c(OC)c2)c(O)c1O`, for which the “growth inhibition (GI)” value in experiment [1], in [2] and in experiment [3] was “inactive” each time.
Take `COc1ccc(/C=C\c2cc(OC)c(OC)c(OC)c2)c(O)c1O`: the Activity result in [4] was “Dose-dependent effect”. Also, the outcome in [13] and in experiment [14] was Active.
Take `COc1ccc(/C=C/c2cc(OC)c(OC)c(OC)c2)cc1F`: the “growth inhibition (GI)” value in experiment [1], in experiment [2] and in experiment [3] was “inactive” each time.
In the case of `COc1ccc(/C=C/c2cc(OC)c(OC)c(OC)c2)cc1[N+](=O)[O-]`, the “growth inhibition (GI)” value in experiment [1], in experiment [2] and in [3] was “inactive” each time.
